According to PMC12337341 (Proceedings of the National Academy of Sciences of the …, 2025):

How the values were obtained:
Type in all cases: biochemical
CRYL1 [1] = target: T1, CRYL1 (Homo sapiens, UniProt Q9Y2S2); assay: NADH formation at […] nm; conditions: 20 mM potassium phosphate, 37 °C, L-gulonate
T1 sequence (Q9Y2S2 2-319): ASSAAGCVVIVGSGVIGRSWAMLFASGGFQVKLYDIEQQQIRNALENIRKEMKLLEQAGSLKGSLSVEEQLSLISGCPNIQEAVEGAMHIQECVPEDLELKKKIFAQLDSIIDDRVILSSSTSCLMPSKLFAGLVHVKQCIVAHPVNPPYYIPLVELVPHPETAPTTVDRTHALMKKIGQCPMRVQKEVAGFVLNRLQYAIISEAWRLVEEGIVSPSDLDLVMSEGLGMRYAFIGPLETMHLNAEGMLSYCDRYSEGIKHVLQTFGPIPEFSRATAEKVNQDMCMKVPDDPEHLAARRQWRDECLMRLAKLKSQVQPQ

DCXR = DCXR (Homo sapiens, UniProt Q7Z4W1); assay: 1H NMR
Sequence of DCXR (Q7Z4W1 whole entry): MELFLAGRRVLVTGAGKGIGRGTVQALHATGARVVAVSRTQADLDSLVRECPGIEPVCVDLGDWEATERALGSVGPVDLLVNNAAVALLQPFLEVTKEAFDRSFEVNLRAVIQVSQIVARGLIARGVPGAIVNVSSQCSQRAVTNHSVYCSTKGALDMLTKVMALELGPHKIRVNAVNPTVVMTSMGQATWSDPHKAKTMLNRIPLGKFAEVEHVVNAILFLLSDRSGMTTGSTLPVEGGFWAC

CRYL1 [2] = target: T1, CRYL1; assay: 1H NMR, NADH at […] nm and UHPLC-HRMS of product BKG; conditions: 20 mM potassium phosphate pH 7.9, 25 °C, NAD+ (NMR); oxidation at C3

`NC(=O)c1ccc[n+]([C@@H]2O[C@H](COP(=O)(O)OP(=O)(O)OC[C@H]3O[C@@H](n4cnc5c(N)ncnc54)[C@H](O)[C@@H]3O)[C@@H](O)[C@H]2O)c1` [NAD^+] was tested, and the “NADH formation at 340 nm” value (CRYL1 [1]) was “exploiting the equilibrium of the NAD-dependent reaction of CRYL1”.
`NC(=O)c1ccc[n+]([C@@H]2O[C@H](COP(=O)(O)OP(=O)(O)OC[C@H]3O[C@@H](n4cnc5c(N)ncnc54)[C@H](OP(=O)(O)O)[C@@H]3O)[C@@H](O)[C@H]2O)c1` [NADP+] was tested, and the “1H NMR” value (DCXR; reverse reaction with xylitol, same) was “using DCXR in the reverse reaction with xylitol and NADP+ as substrates”.
For `OC[C@@H](O)[C@H](O)[C@@H](O)CO` [xylitol], the “1H NMR” value (DCXR; reverse reaction with NADP+, 20 mM potassium phosphate pH 7.9, 25 °C) was “using DCXR in the reverse reaction with xylitol and NADP+ as substrates”.
`O=C(O)[C@@H](O)[C@@H](O)[C@H](O)[C@@H](O)CO` [L-gulonate] was tested, and the “1H NMR, NADH at 340 nm and UHPLC-HRMS of product BKG” value (CRYL1 [2]) was “the CRYL1 oxidation of L-gulonate at C3 is observed”.
